Consider 26 compounds from EP0365763A1, “Antiproliferative cyclic compounds” (priority 1988, dated 1990).

The subject of assay [1] is L1210 murine leukemia (ATCC CCL 219). The assay is described as follows: Cellular growth in culture, MTT-tetrazolium reduction assay. The assay is classed as cell-based. The following applies: for IC50: Mus musculus, L1210, 72 h, read-out: IC50 FOR CELLS IN CULTURE L1210. Here is the method:
(§1) Cellular growth in the presence of the compounds in question was assessed using two cell lines, the Ll2l0 murine leukemia (ATCC CCL 219) and CCRF-CEM, a human lymphoblastic leukemia line of T-cell origin (ATCC CCL 119). Both lines were maintained in RPMI 1640 medium containing 5% heat-inactivated fetal bovine serum without antibiotics.
(§2) IC₅₀ values were determined in 150 microliter microcultures each containing 1500 (Ll2l0) or 4000 (CCRF-CEM) cells established in 96 well plates in growth medium supplemented with 50 IU/ml penicillin and 50 mcg/ml streptomycin. Growth was measured over 3 days (Ll2l0) or 5 days (CCRF-CEM) of continuous exposure to varying concentrations of each test compound added 4 h. after initial cell plating by the MTT-tetrazolium reduction assay of Mosmann (T. J. Immunol. Meth. 65, 55-63 (1983)) modified according to Alley et al. (Cancer Res. 48 589-601 (1988)). Water insoluble derivatives were dissolved in DMSO and diluted to a final concentration of 0.5% solvent in cell cultures.
For orientation: Formazan colour is commonly taken as a measure of viable cells.

The subject of assay [2] is CCRF-CEM, a human lymphoblastic leukemia line of T-cell origin (ATCC CCL 119). Described as above. The following applies: for IC50: Homo sapiens, CCRF-CEM, 120 h, read-out: IC50 FOR CELLS IN CULTURE CCRF-CEM; for inhibition at this concentration, CCRF-CEM: at the highest concentration tested, 5 days. The assay is classed as cell-based. Here is the method: as §1, §2
Assay [3] addresses Human thymidylate synthase (TS) (Homo sapiens, UniProt P04818). The assay is described as follows: Thymidylate synthase inhibition constants against 5,10-methylene-tetrahydrofolate. The format is biochemical. Here is the method:
(§3) Determination of Inhibition Constants Against 5,10-Methylene-Tetrahydrofolate
(§4) Thymidylate synthase inhibition constants K₁ have been determined by the following method. All assays were run at 25°C and initiated by the addition of thymidylate synthase ("TS"). […] All reaction mixtures contained 50 mM Tris at pH 7.8 (the final pH of the reaction was 7.6), 10 mM DTT (dithiothreitol), 1 mM EDTA (ethylenediaminetetraacetic acid), 25 mM MgCl₂, 15 mM H₂CO (formaldehyde) and 25 microM dUMP. When human or Leishmania TS was assayed, 100 micrograms/ml of BSA (bovine serum albumin) was present in the reactions.

Assay [4] concerns the target E.coli thymidylate synthase (TS) (Escherichia coli, UniProt P0A884). Described as above. The format is biochemical. Here is the method: as §3
as §4, with “reactions. […] Charcoal was used to remove unreacted dUMP from the tritium release reaction mixtures and the resultant water was counted to determine the extent of reaction.” for “reactions.”

The target in assay [5] is C.albicans thymidylate synthase (TS) (Candida albicans, UniProt P12461). Described as above. The assay is classed as biochemical. Here is the method:
as §3
as §4, with “reactions. […] Charcoal was used to remove unreacted dUMP from the tritium release reaction mixtures and the resultant water was counted to determine the extent of reaction.” for “reactions.”

Assay [6] concerns the target L. major thymidylate synthase (TS) (Leishmania major, UniProt P07382). In words: biochemical. The protocol: as §3
as §4, with “reactions. […] Charcoal was used to remove unreacted dUMP from the tritium release reaction mixtures and the resultant water was counted to determine the extent of reaction.” for “reactions.”

For the next assay, the target named is T1, murine L1210 TS (Mus musculus, UniProt P07607).
T1 construct: host or cells: L1210
T1 sequence (P07607 whole entry): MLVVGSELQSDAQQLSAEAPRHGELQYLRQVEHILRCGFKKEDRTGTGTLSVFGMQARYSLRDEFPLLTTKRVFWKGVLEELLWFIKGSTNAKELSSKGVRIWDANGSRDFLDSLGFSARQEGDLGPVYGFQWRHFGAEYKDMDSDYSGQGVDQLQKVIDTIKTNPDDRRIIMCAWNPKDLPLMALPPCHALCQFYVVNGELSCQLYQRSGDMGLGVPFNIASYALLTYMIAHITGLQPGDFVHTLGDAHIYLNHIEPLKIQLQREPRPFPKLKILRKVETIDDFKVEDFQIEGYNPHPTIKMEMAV
The following applies: relative to 10-propargyl-5,8-dideazafolic acid; cited from earlier work.

Where [7] appears, read: 25°C, pH 7.6, 25 microM dUMP, THF 5 to 150 microM, 100 micrograms/ml BSA, read-out: K1TS Human.
The mark [8] stands for this setting: 3 days of continuous exposure, MTT.
Where [9] appears, read: 5 days of continuous exposure, MTT.
Setting [10] is: 25°C, pH 7.6, 25 microM dUMP, THF 5 to 150 microM, read-out: K1TS C.albicans.

Where two headings read alike, the source gives them in different places.

Sequence of C.albicans thymidylate synthase (TS) (P12461 whole entry): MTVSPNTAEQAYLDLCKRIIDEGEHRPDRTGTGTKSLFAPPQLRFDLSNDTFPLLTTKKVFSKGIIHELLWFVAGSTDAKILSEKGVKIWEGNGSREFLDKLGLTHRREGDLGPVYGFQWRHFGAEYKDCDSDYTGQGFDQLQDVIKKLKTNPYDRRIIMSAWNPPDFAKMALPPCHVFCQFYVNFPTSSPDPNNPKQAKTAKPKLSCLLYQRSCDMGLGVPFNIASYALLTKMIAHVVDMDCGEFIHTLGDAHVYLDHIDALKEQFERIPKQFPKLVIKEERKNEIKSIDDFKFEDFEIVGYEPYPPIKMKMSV
Sequence of E.coli thymidylate synthase (TS) (P0A884 whole entry): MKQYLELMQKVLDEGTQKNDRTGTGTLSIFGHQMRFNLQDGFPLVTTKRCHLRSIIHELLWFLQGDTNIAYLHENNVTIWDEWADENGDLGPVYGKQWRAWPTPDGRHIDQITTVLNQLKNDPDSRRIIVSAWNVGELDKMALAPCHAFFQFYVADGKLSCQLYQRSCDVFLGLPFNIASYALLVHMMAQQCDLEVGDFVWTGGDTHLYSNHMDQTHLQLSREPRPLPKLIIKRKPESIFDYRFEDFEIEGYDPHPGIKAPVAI
Sequence of Human thymidylate synthase (TS) (P04818 whole entry): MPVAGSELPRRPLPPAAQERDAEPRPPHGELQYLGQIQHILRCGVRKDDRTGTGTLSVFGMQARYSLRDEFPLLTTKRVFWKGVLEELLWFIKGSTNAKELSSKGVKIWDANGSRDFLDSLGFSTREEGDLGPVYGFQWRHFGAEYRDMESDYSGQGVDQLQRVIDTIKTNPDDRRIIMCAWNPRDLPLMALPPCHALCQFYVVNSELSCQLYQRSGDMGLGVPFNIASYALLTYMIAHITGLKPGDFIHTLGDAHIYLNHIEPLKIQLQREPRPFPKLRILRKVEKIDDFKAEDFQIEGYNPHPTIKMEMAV
Sequence of L. major thymidylate synthase (TS) (P07382 whole entry): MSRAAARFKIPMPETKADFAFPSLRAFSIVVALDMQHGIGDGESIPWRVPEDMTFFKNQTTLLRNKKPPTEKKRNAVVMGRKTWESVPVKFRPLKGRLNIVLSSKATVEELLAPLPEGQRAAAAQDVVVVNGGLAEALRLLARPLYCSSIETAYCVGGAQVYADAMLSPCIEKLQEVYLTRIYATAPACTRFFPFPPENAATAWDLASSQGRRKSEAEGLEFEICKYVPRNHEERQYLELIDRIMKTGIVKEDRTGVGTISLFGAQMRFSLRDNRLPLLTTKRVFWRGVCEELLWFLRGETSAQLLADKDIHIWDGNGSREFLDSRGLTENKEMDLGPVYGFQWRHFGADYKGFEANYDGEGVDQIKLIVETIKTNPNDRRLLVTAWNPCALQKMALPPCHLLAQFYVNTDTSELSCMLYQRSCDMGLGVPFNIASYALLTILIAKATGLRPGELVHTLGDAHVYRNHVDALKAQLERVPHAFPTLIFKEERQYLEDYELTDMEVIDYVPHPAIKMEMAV

As to `C#CCN(Cc1ccc2nc(C)[nH]c(=O)c2c1)c1ccc(S(=O)(=O)c2ccccc2)cc1` [Compound 4-SO2Ph], the half-maximal inhibitory concentration (IC50) (commonly the concentration needed to halve the response being measured) came out at 1 µM in assay [1] and 2.5 µM in assay [2].

Take `C#CCN(Cc1ccc2nc(C)nc(O)c2c1)c1cccc(CC)c1` [Compound 3-C2H5]: the Ki in assay [3] (setting [7]) amounted to 23.9 ± 20.8 µM; in assay [4], 24.5 ± 15.7 µM. For the same compound, the IC50 in assay [1] (setting [8]) and in assay [2] (setting [9]) was more than 5 µM in each case.

Turning to `C#CCN(Cc1ccc2nc(C)nc(O)c2c1)c1cccc(I)c1` [Compound 3-I], the Ki in assay [3] (setting [7]) was 4.7 ± 3.7 µM; in assay [5] (setting [10]), 15.5 ± 5.5 µM; in assay [4], 49 ± 42.3 µM. Further, the IC50 in assay [1] (setting [8]) and in assay [2] (setting [9]) was more than 5.3 µM each time.

Consider `C#CCN(Cc1ccc2nc(C)nc(O)c2c1)c1ccc(S(=O)(=O)NCC(=O)O)c(C(F)(F)F)c1` [3-CF3,4-SO2NHCH2COOH], for which the Ki in assay [6] (25°C, pH 7.6, 25 microM dUMP, THF 5 to 150 microM, 100 micrograms/ml BSA, read-out: K1TS L. major) came to 0.013 µM; in assay [4] it was 0.015 ± 0.003 µM.

`C#CCN(Cc1ccc2nc(C)[nH]c(=O)c2c1)c1ccc(C#N)c(C(F)(F)F)c1` [3-CF3,4-CN]: the results for the Ki in assay [6], in assay [3] and in assay [4] were 0.03 µM, 0.081 ± 0.057 µM and 0.036 ± 0.007 µM, respectively. The IC50 in assay [1] (setting [8]) and in assay [2] (setting [9]) was more than 2.8 µM in each case. For the same compound, the inhibition (commonly the percentage by which the read-out fell short of the control) at this concentration, L1210 in assay [1] (at the highest concentration tested, printed in the same cell or footnote, 3 days) was 15%. In assay [2], the “inhibition at this concentration, CCRF-CEM” value (shortened to “inhibition … CCRF-CEM”) is listed as “no inhibition”.

Turning to `C#CCN(Cc1ccc2nc(C)[nH]c(=O)c2c1)c1ccccc1` [—], the 50% inhibitory concentration (IC50) in assay [1] (setting [8]) and in assay [2] (setting [9]) was more than 10 µM throughout.

Regarding `C#CCN(Cc1ccc2nc(C)nc(O)c2c1)c1ccc(C(=O)c2ccccc2)cc1` [Compound 4-COPh], the values for the Ki in assay [3] (setting [7]) and in assay [4] were 0.7 ± 0.19 µM and 0.5 ± 0.11 µM, respectively. The IC50 in assay [1] (setting [8]) was 6.8 µM; in assay [2] (setting [9]) it was more than 8.5 µM.

As to `C#CCN(Cc1ccc2nc(C)[nH]c(=O)c2c1)c1cccc(C(F)(F)F)c1` [Compound 3-CF3], the IC50 in assay [1] (setting [8]) and in assay [2] (setting [9]) was more than 4.3 µM in each case.

With `C#CCN(Cc1ccc2nc(C)[nH]c(=O)c2c1)c1ccc(S(N)(=O)=O)cc1` [Compound 4-SO2NH2], the Ki was 0.16 ± 0.12 µM in assay [3] (setting [7]), 1 µM in assay [5] (setting [10]) and 0.25 ± 0.15 µM in assay [4]. The half-inhibitory concentration (IC50) in assay [1] (setting [8]) was 20 µM; in assay [2] (setting [9]), more than 25 µM. Besides, the “inhibition … CCRF-CEM” value in assay [2] is “no inhibition”.

Take `C#CCN(Cc1ccc2nc(C)nc(O)c2c1)c1ccc(Cl)cc1` [Compound 4-Cl]: the Ki in assay [3] (setting [7]) was 5.4 µM; in assay [5] (setting [10]) it was 10.6 ± 4.7 µM; in assay [4], 5.9 ± 1.8 µM. In addition, the half-inhibitory concentration (IC50) in assay [1] (setting [8]) and in assay [2] (setting [9]) was more than 4 µM each time.

Take `C#CCN(Cc1ccc2nc(C)nc(O)c2c1)c1ccc([N+](=O)[O-])c(C(F)(F)F)c1` [3-CF3,4-NO2]: the Ki in assay [3] (setting [7]) is 0.2 ± 0.25 µM; in assay [4] it was 0.078 ± 0.076 µM. The IC50 in assay [1] (setting [8]) was more than 5 µM.

Consider `C#CCN(Cc1ccc2nc(-c3ccccc3)[nH]c(=O)c2c1)c1ccc(Cl)cc1` [Compound C], for which, in assay [4], the Ki stood at 42.6 ± 23.1 µM.

Turning to `C#CCN(Cc1ccc2nc(C)nc(O)c2c1)c1ccc(C#N)cc1` [Compound 4-CN], the Ki in assay [3] (setting [7]) was 0.54 ± 0.74 µM; in assay [4], 0.52 ± 0.46 µM. For the same compound, the concentration for half-maximal inhibition (IC50) in assay [1] (setting [8]) and in assay [2] (setting [9]) was more than 5 µM in each case.

Consider `C#CCN(Cc1ccc2nc(C)nc(O)c2c1)c1cccc(Br)c1` [Compound 3-Br], for which the Ki in assay [3] (setting [7]) came out at 3.6 ± 2.6 µM; in assay [4] it was 5.5 ± 1.3 µM. For the same compound, the concentration for half-maximal inhibition (IC50) in assay [1] (setting [8]) and in assay [2] (setting [9]) was more than 5.5 µM throughout.

In the case of `C#CCN(Cc1ccc2nc(C)[nH]c(=O)c2c1)c1ccc(S(=O)(=O)C(F)(F)F)cc1` [Compound A, N-((3,4-Dihydro-2-methyl-4-oxo-6-quinazolinyl)methyl)-N-(prop-2-ynyl)-4-trifluoromethanesulfonylaniline], the Ki amounted to 0.075 ± 0.035 µM in assay [3] (setting [7]) and 0.015 µM in assay [4]. Moreover, the IC50 in assay [1] (setting [8]) and in assay [2] (setting [9]) was more than 2.75 µM each time. In addition, the “inhibition … CCRF-CEM” value in assay [2] is given as “no inhibition”.

In the case of “tetraglutamate of 10-propargyl-5,8-dideazafolic acid”, the “binds more tightly to murine L1210 TS than the monoglutamate parent compound” value at murine L1210 TS is 119 fold.

Regarding `C#CCN(Cc1ccc2nc(C)nc(O)c2c1)c1ccc([N+](=O)[O-])cc1` [Compound 4-NO2], the figures for the Ki in assay [3] (setting [7]), in assay [5] (setting [10]) and in assay [4] were 0.25 ± 0.21 µM, 1.5 ± 1.1 µM and 0.12 ± 0.07 µM, respectively. Further, the IC50 was 4.5 µM in assay [1] (setting [8]) and more than 4.8 µM in assay [2] (setting [9]).

`C#CCN(Cc1ccc2nc(C)nc(O)c2c1)c1cccc(C#C)c1` [3-C≡CH]: in assay [4], the Ki was determined as 32.9 ± 14.1 µM. Besides, the IC50 in assay [1] (setting [8]) and in assay [2] (setting [9]) was more than 2.4 µM in each case.

With `C#CCN(Cc1ccc2nc(C)[nH]c(=O)c2c1)c1ccc(S(=O)(=O)c2ccccc2)c(C(F)(F)F)c1` [Compound B, N-((3,4-Dihydro-2-methyl-4-oxo-6-quinazolinyl)methyl)-4-(phenylsulfonyl)-N-(prop-2-ynyl)-3-(trifluoromethyl)aniline], the concentration for half-maximal inhibition (IC50) in assay [1] (setting [8]) is 3 µM; in assay [2] (setting [9]), 6 µM.

For `C#CCN(Cc1ccc2nc(C)nc(O)c2c1)c1ccc(S(N)(=O)=O)c(C(F)(F)F)c1` [3-CF3,4-SO2NH2], the values for the Ki in assay [3] (setting [7]), in assay [5] (setting [10]) and in assay [4] were 0.58 ± 0.74 µM, 1.9 ± 0.6 µM and 0.19 ± 0.12 µM, respectively.

As for `C#CCN(Cc1ccc2nc(C)nc(O)c2c1)c1cccc(C(C)O)c1` (stereo not shown) [3-CH(OH)CH3], the figures for the Ki in assay [3] (setting [7]) and in assay [4] were 9.6 ± 6.9 µM and 11.4 ± 9.8 µM, respectively. The IC50 in assay [1] (setting [8]) and in assay [2] (setting [9]) was more than 50 µM each time.

As for `C#CCN(Cc1cccc2c(NC=O)coc12)c1ccc([N+](=O)[O-])cc1` [Compound E, N-((3-Formylamino-7-benzofuranyl)methyl)-N-(prop-2-ynyl)-4-nitroaniline], the Ki in assay [4] is 70.9 ± 1.8 µM.

Turning to `C#CCN(Cc1ccc2nc(C)nc(O)c2c1)c1cccc(C)c1` [Compound 3-CH3], the figures for the Ki in assay [3] (setting [7]), in assay [5] (setting [10]) and in assay [4] were 10.2 ± 10.2 µM, 7.7 µM and 16.3 ± 9.8 µM, respectively. Moreover, the IC50 in assay [1] (setting [8]) and in assay [2] (setting [9]) was more than 5 µM in each case.

For the compound `C#CCN(Cc1ccc2nc(C)nc(S)c2c1)c1cccc(C(F)(F)F)c1` [Compound D, N-((3,4-dihydro-2-methyl-4-thio-6-quinazolinyl)methyl)-N-(prop-2-ynyl)-3-trifluoromethylaniline], the Ki was determined as 17.5 ± 11 µM in assay [3] (setting [7]) and 3.3 ± 1.4 µM in assay [4].

Take `C#CCN(Cc1ccc2nc(C)nc(O)c2c1)c1ccc(C#N)c(Cl)c1` [3-Cl, 4-CN]: the figures for the Ki in assay [3], in assay [5] and in assay [4] were 0.087 ± 0.001 µM, 0.28 ± 0.19 µM and 0.091 ± 0.052 µM, respectively. The concentration for half-maximal inhibition (IC50) in assay [1] (setting [8]) was 4.5 µM; in assay [2] (setting [9]), more than 6.8 µM.

Take `C#CCN(Cc1ccc2nc(C)nc(O)c2c1)c1cccc(CO)c1` [Compound 3-CH2OH]: the Ki was 1.2 ± 0.4 µM in assay [3] (setting [7]) and 6.7 ± 5.4 µM in assay [4]. Further, the IC50 in assay [1] (setting [8]) is 48 µM; in assay [2] (setting [9]), more than 55 µM.
